Measured values as given in patent US20120252721A1 (priority 2011, published 2012).

Key:
[1] = test system: HCV genotype 1b Con1 strain subgenomic luciferase replicon (Zluc); assay: Luciferase replicon assay, genotype 1b; format: cell-based; settings: Hepatitis C virus
How it was run: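 Replicon-bearing Huh-7 cells (1×10^4 H1a-luc or 7.5×10^3 Zluc per well) dosed 3 h after plating with ten 5-fold compound dilutions, 72 h at 37 °C/5% CO2. Luciferase measured by ONE-glo luminescence; EC50 from dose-response fits, replicon-free Huh-7 as negative control.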

H1a-luc or Zluc cells = assay: in vitro; format: cell-based, human; settings: Table 1B, cellular viability
How it was run: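 Cytotoxicity counter-screen in which the H1a-luc or Zluc cells were compound-treated and viability was read with the CellTiter 96 AQueous One (MTS) reagent by absorbance at 490 nm. CC50 values came from curve fitting.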

[2] = test system: 1a-luc WT (HCV genotype 1a replicon); assay: Luciferase replicon transient transfection assay, 1a-luc WT; format: cell-based; settings: Hepatitis C virus, 96 h, Huh7.5 cells, 4 days
Experimental: (§1) The luciferase replicon transient transfection assay measures the ability of a test compound to inhibit the replication of a transiently-transfected HCV luciferase-bearing wild-type or mutant replicon in cured human hepatoma cells (Huh7.5). The inhibition of HCV replication was measured by quantification of luciferase protein expression. This assay has been validated using a panel of genotype 1a and 1b replicons bearing mutations known to be associated with resistance to BMS-790052. Briefly, subconfluent Huh7.5 cells were electroporated with 10 μg of wild-type or mutant luciferase-bearing HCV replicon RNA. The cells were then seeded in 96-well opaque white plates at 3×10^4 cells/well in 150 μL/well and incubated for 4 hrs at 37° C./5% CO2. Ten 1:5 serial dilutions of each test compound were made in media (DMEM containing glucose, L-glutamine and sodium pyruvate, 10% fetal bovine serum, 100 IU/mL penicillin, 100 μg/mL streptomycin, 2 mM GlutaMAX, and 1×MEM non-essential amino acids (Mediatech, Inc. and Invitrogen Corp.)) at concentrations that were 4× higher than the final concentrations to be tested and 50 μL/well was added to the transfected cells. Untreated, mock-transfected cells served as a negative control of luciferase expression. The plates were incubated at 37° C./5% CO2 for 4 days whereupon the media was removed and 50 μL of ONE-glo luciferase substrate (Promega) was added to each well. The plates were agitated on a rotating platform at room temperature for 3 min and read in a Victor^3V microplate reader (Perkin-Elmer) using a 700 nm cut-off filter with a 1 sec read time. EC50 values were calculated from dose response curves from the resulting best-fit equations determined by Microsoft Excel and XLfit 4.1 software.

[3] = test system: 1a-luc Q30E (HCV genotype 1a replicon); assay: Luciferase replicon transient transfection assay, 1a-luc Q30E; format: cell-based, hepatitis C virus; settings: for EC50: Hepatitis C virus, 96 h, Huh7.5 cells, 4 days
Experimental: as §1

[4] = test system: 1a-luc Q30H (HCV genotype 1a replicon); assay: Luciferase replicon transient transfection assay, 1a-luc Q30H; format: cell-based, hepatitis C virus; settings: for EC50: Hepatitis C virus, 96 h, Huh7.5 cells, 4 days
Experimental: as §1

[5] = test system: 1a-luc L31V (HCV genotype 1a replicon); assay: Luciferase replicon transient transfection assay, 1a-luc L31V; format: cell-based, hepatitis C virus; settings: for EC50: Hepatitis C virus, 96 h, Huh7.5 cells, 4 days
Experimental: as §1

[6] = test system: 1a-luc Y93H (HCV genotype 1a replicon); assay: Luciferase replicon transient transfection assay, 1a-luc Y93H; format: cell-based, hepatitis C virus; settings: for EC50: Hepatitis C virus, 96 h, Huh7.5 cells, 4 days
Experimental: as §1

[7] = test system: 1a-luc Y93N (HCV genotype 1a replicon); assay: Luciferase replicon transient transfection assay, 1a-luc Y93N; format: cell-based, hepatitis C virus; settings: for EC50: Hepatitis C virus, 96 h, Huh7.5 cells, 4 days
Experimental: as §1

[8] = test system: ZS11-luc WT (HCV genotype 1b replicon); assay: Luciferase replicon transient transfection assay, ZS11-luc WT; format: cell-based, hepatitis C virus; settings: for EC50: genotype 1b, ZS11-luc WT, Huh7.5 cells, 4 days; for Ratio: ZS11-luc (Table 1I)
Experimental: as §1

[9] = test system: ZS11-luc L31F (HCV genotype 1b replicon); assay: Luciferase replicon transient transfection assay, ZS11-luc L31F; format: cell-based, hepatitis C virus; settings: for EC50: Hepatitis C virus, 96 h, Huh7.5 cells, 4 days
Experimental: as §1

[10] = test system: ZS11-luc L31M (HCV genotype 1b replicon); assay: Luciferase replicon transient transfection assay, ZS11-luc L31M; format: cell-based, hepatitis C virus; settings: for EC50: Hepatitis C virus, 96 h, Huh7.5 cells, 4 days
Experimental: as §1

[11] = test system: ZS11-luc L31V (HCV genotype 1b replicon); assay: Luciferase replicon transient transfection assay, ZS11-luc L31V; format: cell-based, hepatitis C virus; settings: for EC50: Hepatitis C virus, 96 h, Huh7.5 cells, 4 days
Experimental: as §1

[12] = test system: ZS11-luc Y93C (HCV genotype 1b replicon); assay: Luciferase replicon transient transfection assay, ZS11-luc Y93C; format: cell-based, hepatitis C virus; settings: for EC50: Hepatitis C virus, 96 h, Huh7.5 cells, 4 days
Experimental: as §1

[13] = test system: ZS11-luc Y93H (HCV genotype 1b replicon); assay: Luciferase replicon transient transfection assay, ZS11-luc Y93H; format: cell-based, hepatitis C virus; settings: for EC50: Hepatitis C virus, 96 h, Huh7.5 cells, 4 days
Experimental: as §1

[14] = Hepatitis C virus, Huh7.5, 96 h

Row | Structure (SMILES) | EC50 [1] [nM] | CC50 (H1a-luc or Zluc cells) [nM] | EC50 [2] [nM] | Ratio [3] | EC50 [3] [nM] | EC50 [4] [nM] | Ratio [5] | EC50 [5] [nM] | Ratio [6] | EC50 [6] [nM] | Ratio [7] | EC50 [7] [nM] | Ratio [9] | EC50 [9] [nM] | Ratio [10] | EC50 [10] [nM] | Ratio [11] | EC50 [11] [nM] | Ratio [12] | EC50 [12] [nM] | further results
1 | COC(=O)N[C@H](C(=O)N1CCC[C@H]1c1ncc(-c2ccc(-c3csc4c(-c5cnc([C@@H]6CCCN6C(=O)[C@@H](NC(=O)OC)C(C)C)[nH]5)csc34)cc2)[nH]1)C(C)C [Compound A15, [(S)-1-((S)-2-{4-[4-(6-{2-[(S)-1-((S)-2-methoxycarbonylamino-3-methyl-butyryl)-pyrrolidin-2-yl]-3H-imidazol-4-yl}-thieno[3,2-b]thiophen-3-yl)-phenyl]-1H-imidazol-2-yl}-pyrrolidine-1-carbonyl)-2-methyl-propyl]-carbamic acid methyl ester] | < 0.1 | – | – | – | – | – | – | – | – | – | – | – | – | – | – | – | – | – | – | – | –
2 | COC(=O)N[C@H](C(=O)N1CCC[C@H]1c1nc2cc(-c3csc4c(-c5ccc(-c6cnc([C@@H]7CCCN7C(=O)[C@H](NC(=O)OC)c7ccccc7)[nH]6)cc5)csc34)ccc2[nH]1)C(C)C [Compound A169, [(S)-1-((S)-2-{6-[6-(4-{(S)-2-[1-((R)-2-methoxycarbonylamino-2-phenyl-acetyl)-pyrrolidin-2-yl]-3H-imidazol-4-yl}-phenyl)-thieno[3,2-b]thiophen-3-yl]-1H-benzoimidazol-2-yl}-pyrrolidine-1-carbonyl)-2-methyl-propyl]-carbamic acid methyl ester] | < 0.1 | > 75000 | 0.002 | 422 | 0.9 | 0.05 | 425 | 0.9 | 4428 | 9 | 14,363 | 30 | 4 | 0.01 | 4 | 0.009 | 14 | 0.03 | 3 | 0.006 | Ratio [4]: 24; EC50 [8, 14]: 0.002 nM; Ratio [8]: 1; EC50 [8]: 0.0017 nM; Ratio [13]: 82; EC50 [13]: 0.2 nM
3 | COC(=O)N[C@H](C(=O)N1CCC[C@H]1c1ncc(-c2ccc(-c3csc4c(-c5ccc6[nH]c([C@@H]7CCCN7C(=O)[C@H](NC(=O)OC)c7ccccc7)nc6c5)csc34)cc2)[nH]1)C(C)C [Compound A172, [(S)-1-((S)-2-{5-[4-(6-{(S)-2-[1-((R)-2-Methoxycarbonylamino-2-phenyl-acetyl)-pyrrolidin-2-yl]-3H-benzoimidazol-5-yl}-thieno[3,2-b]thiophen-3-yl)-phenyl]-1H-imidazol-2-yl}-pyrrolidine-1-carbonyl)-2-methyl-propyl]-carbamic acid methyl ester] | < 0.1 | > 75000 | 0.004 | 423 | 2 | 0.08 | 695 | 3 | 5427 | 21 | 22,328 | 81 | 4 | 0.02 | 3 | 0.01 | 9 | 0.04 | 2 | 0.01 | Ratio [4]: 21; Ratio [8]: 1; Ratio [13]: 56; EC50 [13]: 0.3 nM
4 | COC(=O)N[C@H](C(=O)N1CCC[C@H]1c1ncc(-c2ccc(-c3csc4c(-c5cnc([C@@H]6CCCN6C(=O)[C@H](NC(=O)OC(C)(C)C)c6ccccc6)[nH]5)csc34)cc2)[nH]1)C(C)C [Compound A111, [(S)-1-((S)-2-{4-[4-(6-{(S)-2-[1-((R)-2-tert-butoxycarbonylamino-2-phenyl-acetyl)-pyrrolidin-2-yl]-3H-imidazol-4-yl}-thieno[3,2-b]thiophen-3-yl)-phenyl]-1H-imidazol-2-yl}-pyrrolidine-1-carbonyl)-2-methyl-propyl]-carbamic acid methyl ester] | < 0.1 | > 75000 | 0.04 | 957 | 47 | 2 | 768 | 36 | >4859 | > 198 | >11,202 | > 454 | 8 | 0.01 | 7 | 0.01 | 51 | 0.09 | 4 | 0.006 | EC50 [8, 14]: 0.002 nM; Ratio [13]: 48; EC50 [13]: 0.08 nM
